Where a chain is given by its changes, count along the chain named.
Experiments:
[1] = system: absence seizures; design: method as in PMID 34018186; settings: coadministration with P-glycoprotein inhibitor elacridar; cited from earlier work
[2] = molecular target: T1, HCN1 mutant Y289A (Homo sapiens, UniProt O60741, Y289A); assay: Whole-cell patch-clamp, Ih inhibition, HCN1 mutant; type: cell-based; settings: electrophysiological recordings, read-out: IC50 (Fig. 2F)
T1 construct: Full-length WT or mutant human HCN1 were cloned into the pcDNA3.1 vector; expressed in transfected cells; host or cells: HeLa cells, pcDNA3.1 vector, transient lipofection
T1 sequence (O60741 1-890 Y289A): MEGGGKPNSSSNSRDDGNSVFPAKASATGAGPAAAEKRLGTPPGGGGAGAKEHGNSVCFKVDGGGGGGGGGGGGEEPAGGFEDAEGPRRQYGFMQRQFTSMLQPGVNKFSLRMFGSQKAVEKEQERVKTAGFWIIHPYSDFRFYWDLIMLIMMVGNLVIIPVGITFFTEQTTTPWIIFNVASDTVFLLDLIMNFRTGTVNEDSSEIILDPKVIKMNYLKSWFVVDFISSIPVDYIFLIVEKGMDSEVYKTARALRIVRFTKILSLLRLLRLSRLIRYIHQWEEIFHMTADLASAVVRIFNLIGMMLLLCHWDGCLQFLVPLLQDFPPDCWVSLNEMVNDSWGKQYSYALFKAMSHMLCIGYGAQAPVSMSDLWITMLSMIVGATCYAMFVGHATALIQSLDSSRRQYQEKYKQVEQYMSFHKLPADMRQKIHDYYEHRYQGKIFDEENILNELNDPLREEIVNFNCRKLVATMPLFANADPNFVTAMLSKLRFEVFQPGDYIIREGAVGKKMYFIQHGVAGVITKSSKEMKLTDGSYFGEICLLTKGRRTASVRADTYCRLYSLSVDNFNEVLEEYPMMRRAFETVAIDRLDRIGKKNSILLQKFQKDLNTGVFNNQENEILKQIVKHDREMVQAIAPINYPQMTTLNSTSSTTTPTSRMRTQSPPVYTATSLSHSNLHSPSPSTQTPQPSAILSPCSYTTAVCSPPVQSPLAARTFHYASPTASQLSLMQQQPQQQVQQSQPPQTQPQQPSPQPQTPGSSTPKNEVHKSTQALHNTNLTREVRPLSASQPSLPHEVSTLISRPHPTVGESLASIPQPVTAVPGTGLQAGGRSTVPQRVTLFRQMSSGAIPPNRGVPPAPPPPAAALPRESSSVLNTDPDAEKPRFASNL
Procedure: To elucidate the contribution of these residues to the inhibitory effect of ivabradine, we introduced mutations in ivabradine-interacting residues, converting them into alanines (Fig. 2F).
(§1) Full-length WT or mutant human HCN1 were cloned into the pcDNA3.1 vector for electrophysiological experiments. HeLa cells (from Thermo Fisher Scientific) cultured in Dulbecco's modified Eagle's medium (from Solarbio Life Science) + 10% fetal bovine serum (from ExCell Bio) at 37 °C were transiently transfected using lipofection, and whole-cell patch-clamp recordings were obtained using the Axon 200B amplifier (Molecular Devices) and clampex software (https://www.moleculardevices.com/products/axon-patch-clamp-system/acquisition-and-analysis-software/pclamp-software-suite), 36 to 48 h posttransfection. The extracellular solution contained 110 mM NaCl, 0.5 mM MgCl2, 1.8 mM CaCl2, 5 mM Hepes, 30 mM KCl, and pH was adjusted to 7.4 with NaOH, while the pipette solution contained 130 mM KCl, 10 mM NaCl, 0.5 mM MgCl2, 1 mM EGTA, 5 mM Hepes, and pH was adjusted to 7.4 with KOH. The recordings were performed at room temperature, voltage-clamp mode, and filtered at 1 kHz. The sampling frequency was 10 kHz, and the series resistance was limited to 5 MΩ. To elicit channel currents, step pulses of 3 s duration ranging from −180 mV to −30 mV were applied, followed by a step to −180 mV lasting 1.25 s. The tail currents evoked by the second step were used to determine the voltage-dependent activation curves and calculate the midpoint of activation potential (V1/2). The half maximal inhibitory concentration (IC50) of drugs was determined by recording currents at a pulse of −140 mV and analyzing current amplitudes at varying drug concentrations. The IC50 value was calculated using the Hill equation.

[3] = molecular target: T2, WT hHCN1 (Homo sapiens, UniProt O60741); assay: Whole-cell patch-clamp, Ih inhibition in transfected HeLa cells; type: cell-based
T2 construct: Full-length WT or mutant human HCN1 were cloned into the pcDNA3.1 vector; expressed in transfected cells; host or cells: HeLa cells, pcDNA3.1 vector, transient lipofection
T2 sequence (O60741 1-890): T1 sequence (O60741 1-890 Y289A) with A289Y
Procedure: The electrophysiological characteristics of WT hHCN1 were recorded using whole-cell patch-clamp. […] Activation of the HCN1 channel occurred in response to membrane hyperpolarization.
as §1

[4] = design: method as in PMID 16936474; settings: cited from earlier work

IC50 [2]: 11.8 µM
effect on Ih current ([3]; 20 μM): significantly reduced
IC50 ([3]; membrane potential -140 mV, read-out: half-maximal inhibitory concentration (IC50) of Ih inhibition): 2.94 ± 0.61 µM
Structure (SMILES): COc1cc2c(cc1OC)CC(=O)N(CCCN(C)C[C@H]1Cc3cc(OC)c(OC)cc31)CC2 [ivabradine]
effect on absence seizures [1]: significantly and persistently reducing absence seizures
ability to penetrate the blood-brain barrier [4]: poor

Source: article PMC11530593, “Structural mechanism of human HCN1 hyperpolarization-activated channel inhibition by ivabradine” (The Journal of Biological Chemistry, 2024)
